Reference: patent US11845760B2, “PRMT5 inhibitors” (AMGEN INC., priority 2020, dated 2023)
Where two headings read alike, the source gives them in different places.

How the values were obtained:
[1] = tested on: HCT116 WT cells; experiment: HCT116 WT cell line proliferation (CellTiter-Glo cell viability, 6 days); type: cell-based; conditions: read-out: HCT-116 WT IC50
Experimental: (§1) To assess selective anti-proliferative activity of compounds of the invention in cells that have loss expression of MTAP, an HCT-116 isogenic cell line pair was utilized where one cell line was engineered to genetically knockout both MTAP alleles. Cell viability was then assessed in both the parent HCT-116 cell line and the MTAP null cell line after 6 days of treatment with compounds of the present invention. Selective anti-proliferative activity in the MTAP null cell line indicates MTA-cooperative inhibition of PRMT5 and ability to inhibit growth of cancer cells that have loss of MTAP.
(§2) HCT116 MTAP null and WT cells were seeded in 96-well tissue culture plates in RPMI 1640 media+10% fetal bovine serum. Plates were incubated overnight at 37° C. and 5% CO2. Cells were then treated with an 8- or 9-point serial dilution of compound, using a top concentration of 1, or 10 μM, 1:3 serial dilution steps and, a DMSO-only control. Cells were incubated in the presence of drug for 6 days. Effects on cell viability were measured with the CellTiter-Glo® Luminescent Cell Viability Assay (Promega) per manufacturer's recommendation. Assay plates were read on an EnVision™ Multilabel Reader using the Ultra-Sensitive luminescence module. IC50 values were calculated with GraphPad Prism v 5.01 using symmetrical sigmoidal dose-response least squares fit with Hill slope fixed to −1 and top constrain to 100% or GeneData Screener using a 4-parameter logistic model to fit dose response curves.
(§3) Alternatively, compounds could be assayed with a 384 well plate format:
(§4) Compounds were pre-spotted into 384 well plates with a 22-point serial dilution of compound, using a top concentration of 10 or 50 μM, 1:2 serial dilution steps and, a DMSO-only control. HCT116 MTAP null and WT cells were then seeded as above and after 6 days effects on cell viability were measured with the CellTiter-Glo® Luminescent Cell Viability Assay (Promega). Assay plates were read as above and IC50 values were calculated with GeneData Screener using a 4-parameter logistic model to fit dose response curves. The reported IC50 represents the value where the curve transits 50% of control.

[2] = tested on: HCT116 MTAP null cells; experiment: HCT116 MTAP null cell line proliferation (CellTiter-Glo cell viability, 6 days); type: cell-based; conditions: read-out: HCT-116 MTAP null IC50
Experimental: as §1, §2, §3, §4

[3] = Homo sapiens, HCT-116, 144 h, HCT116 WT (parent) cells, 6 days of treatment, CellTiter-Glo cell viability
[4] = HCT116-MTAP null, 144 h, HCT116 MTAP null cells, 6 days of treatment, CellTiter-Glo cell viability
[5] = HCT116 WT (parent) cells, 6 days of treatment, CellTiter-Glo cell viability
[6] = HCT116 MTAP null cells, 6 days of treatment, CellTiter-Glo cell viability

SMILES	IC50 [1, 3]	IC50 [2, 4]	also measured
C[C@H]1OCc2c1c(N)nc1ccc(C(=O)N3CC(c4ccccc4)C4COCCC43)cc21 (stereo partly drawn) [Example 397, ((3R)-4-amino-3-methyl-1,3-dihydrofuro[3,4-c]quinolin-8-yl)(3-phenylhexahydropyrano[4,3-b]pyrrol-1(4H)-yl)methanone]	32 µM	0.38 µM	
Nc1nc2ccc(C(=O)N3CCOC[C@@H]3c3ccc(C(F)(F)F)nc3)cc2c2c1COC2 (single isomer, unassigned) [Example 609]	9.11 µM	0.207 µM	
Nc1nc2cnc(C(=O)N3CC[S+]([O-])C[C@@H]3c3ccc(C(F)(F)F)cc3)cc2c2c1COC2 (stereo partly drawn) [Example 623, (4-Amino-1,3-dihydrofuro[3,4-c][1,7]naphthyridin-8-yl)((3S)-1-oxido-3-(4-(trifluoromethyl)phenyl)thiomorpholino)methanone]			IC50 ([1]; Homo sapiens, HCT-116, 144 h): 25.7 µM; IC50 ([2]; HCT116-MTAP null, 144 h): 0.843 µM
Nc1nc2cc(Cl)c(C(=O)N3CCOCC3c3ccc(OC(F)F)nc3)cc2c2c1COC2 (racemic) [Example 384, (4-amino-7-chloro-1,3-dihydrofuro[3,4-c]quinolin-8-yl)((3R)-3-(6-(difluoromethoxy)-3-pyridinyl)-4-morpholinyl)methanone and (4-amino-7-chloro-1,3-dihydrofuro[3,4-c]quinolin-8-yl)((3S)-3-(6-(difluoromethoxy)-3-pyridinyl)-4-morpholinyl)methanone]			IC50 [1, 5]: 1.68 µM; IC50 [2, 6]: 0.023 µM
CC(=O)N1CCN(C(=O)c2cc3c4c(c(N)nc3cn2)COC4)[C@@H](c2ccc(C(F)(F)F)cc2)C1 [Example 624, (S)-1-(4-(4-Amino-1,3-dihydrofuro[3,4-c][1,7]naphthyridine-8-carbonyl)-3-(4-(trifluoromethyl)phenyl)piperazin-1-yl)ethan-1-one]	8.57 µM	0.343 µM	
CC(C)(C)OC(=O)N1CCN(C(=O)c2cc3c4c(c(N)nc3cn2)COC4)[C@@H](c2ccc(C(F)(F)F)cc2)C1 (single isomer, unassigned) [Example 589]			IC50 [1, 5]: > 10 µM; IC50 [2, 6]: 5.1 µM
Nc1nc2cc(Cl)c(C(=O)N3C[C@@H](c4ccc(F)cc4)[C@H](c4cc[nH]n4)C3)cc2c2c1COC2 (single isomer, unassigned) [Example 476]	1.56 µM	0.068 µM	
Nc1nc2ccc(C(=O)N3CCOC[C@@H]3c3ccc(C(F)(F)C(F)(F)F)cc3)cc2c2c1COC2 [Example 510, (4-amino-1,3-dihydrofuro[3,4-c]quinolin-8-yl)((3S)-3-(4-(pentafluoroethyl)phenyl)-4-morpholinyl)methanone]	1.58 µM	0.043 µM	
Nc1nc2ccc(C(=O)N3CCOC[C@@H]3c3ccc(C(F)(F)F)cc3)cc2c2c1COC2 (single isomer, unassigned) [Example 456]	4.36 µM	0.102 µM	
CC(C)Oc1ccc([C@H]2COCCN2C(=O)c2cc3c4c(c(N)nc3cn2)COC4)cn1 (mixture of isomers) [Example 323, (4-amino-1,3-dihydrofuro[3,4-c][1,7]naphthyridin-8-yl)((3R)-3-(6-(2-propanyloxy)-3-pyridinyl)-4-morpholinyl)methanone and (4-amino-1,3-dihydrofuro[3,4-c][1,7]naphthyridin-8-yl)((3S)-3-(6-(2-propanyloxy)-3-pyridinyl)-4-morpholinyl)methanone]		0.397 µM	
Nc1nc2ccc(C(=O)N3CCOCC3c3ccccc3Cl)cc2c2c1COC2 (racemic) [Example 360, (4-amino-1,3-dihydrofuro[3,4-c]quinolin-8-yl)-[rac-(3S)-3-(2-chlorophenyl)morpholin-4-yl]methanone]		1.05 µM	
Nc1nc2ccc(C(=O)N3CCOCC3c3cccc(Br)c3)cc2c2c1COC2 (racemic) [Example 366, (4-amino-1,3-dihydrofuro[3,4-c]quinolin-8-yl)-[rac-(3S)-3-(3-bromophenyl)morpholin-4-yl]methanone]		0.363 µM	
Nc1nc2ccc(C(=O)N3CCOCC3c3ccc(Br)cc3)cc2c2c1COC2 (racemic) [Example 367, (4-amino-1,3-dihydrofuro[3,4-c]quinolin-8-yl)-[rac-(3S)-3-(4-bromophenyl)morpholin-4-yl]methanone]		0.368 µM	
Nc1nc2cnc(C(=O)N3CCOCC3c3ccc(C4CC4)nc3)cc2c2c1COC2 (racemic) [Example 495, (4-amino-1,3-dihydrofuro[3,4-c][1,7]naphthyridin-8-yl)-[rac-(3S)-3-(6-cyclopropyl-3-pyridyl)morpholin-4-yl]methanone]		0.502 µM	
Cc1ccc(C2COCCN2C(=O)c2ccc3nc(N)c4c(c3c2)COC4)cc1 (racemic) [Example 361, (4-amino-1,3-dihydrofuro[3,4-c]quinolin-8-yl)-[rac-(3S)-3-(p-tolyl)morpholin-4-yl]methanone]		0.839 µM	

Now from value to molecule, other results behind:

IC50 [1, 3]	IC50 [2, 4]	SMILES	also measured
0.906 µM	0.048 µM	C[C@@H]1COC[C@H](c2ccc(OC(F)(F)F)cn2)N1C(=O)c1cc2c3c(c(N)nc2cn1)[C@@H](C)OC3 (racemic) [Example 380, ((3R)-4-amino-3-methyl-1,3-dihydrofuro[3,4-c][1,7]naphthyridin-8-yl)((3R,5S)-3-methyl-5-(5-(trifluoromethoxy)-2-pyridinyl)-4-morpholinyl)methanone and ((3R)-4-amino-3-methyl-1,3-dihydrofuro[3,4-c][1,7]naphthyridin-8-yl)((3S,5R)-3-methyl-5-(5-(trifluoromethoxy)-2-pyridinyl)-4-morpholinyl)methanone]	
0.198 µM	0.013 µM	Cn1ncc2c(N)nc3cc(Cl)c(C(=O)N4CCOC[C@@H]4c4ccc(C(F)(F)F)cc4)cc3c21 [Example 546, (4-amino-7-chloro-1-methyl-1H-pyrazolo[4,3-c]quinolin-8-yl)((3S)-3-(4-(trifluorometliyl)phenyl)-4-morpholinyl)methanone]	
0.572 µM	0.71 µM	C[C@H]1COC[C@@H](c2ccc(C(F)(F)F)cn2)N1C(=O)c1cc2c3c(c(N)nc2cc1F)COC3 (mixture of isomers) [Example 304, (4-amino-7-fluoro-1,3-dihydrofuro[3,4-c]quinolin-8-yl)((3R,5S)-3-methyl-5-(5-(trifluoromethyl)-2-pyridinyl)-4-morpholinyl)methanone and (4-amino-7-fluoro-1,3-dihydrofuro[3,4-c]quinolin-8-yl)((3S,5R)-3-methyl-5-(5-(trifluoromethyl)-2-pyridinyl)-4-morpholinyl)methanone]	
6.01 µM	0.283 µM	Cn1ncc2c(N)nc3cc(F)c(C(=O)N4CC[C@@H](Oc5ccc(C(F)(F)F)cc5)C4)cc3c21 (single isomer, unassigned) [Example 471]	
0.12 µM	0.018 µM	C[C@@H]1COC[C@H](c2ccc(C(F)(F)F)cn2)N1C(=O)c1cc2c(cn1)nc(N)c1cnn(C)c12 [Example 520, (4-amino-1-methyl-1H-pyrazolo[4,3-c][1,7]naphthyridin-8-yl)((3R,5S)-3-methyl-5-(5-(trifluoromethyl)-2-pyridinyl)-4-morpholinyl)methanone]	
0.689 µM	0.037 µM	Nc1nc2cnc(C(=O)N3CCOC[C@@H]3c3ccc(C(F)(F)F)cc3)cc2c2cnccc12 [Example 501, (5-aminopyrido[4,3-c][1,7]naphthyridin-9-yl)((3S)-3-(4-(trifluoromethyl)phenyl)-4-morpholinyl)methanone]	
0.602 µM	0.014 µM	Cn1ncc2c(N)nc3cc(Cl)c(C(=O)N4CC(c5ccc(C(F)(F)F)cc5)C4)cc3c21 [Example 440, (4-amino-7-chloro-1-methyl-1H-pyrazolo[4,3-c]quinolin-8-yl)(3-(4-(trifluoromethyl)phenyl)-1-azetidinyl)methanone]	
	0.099 µM	CC1(C)CN(C(=O)c2ccc3nc(N)c4c(c3c2)COC4)[C@@H](c2ccc(C(F)(F)F)cn2)CO1 (single isomer, unassigned) [Example 594]	
	0.186 µM	C[C@@H]1COC[C@H](c2cc(F)cc(F)c2)N1C(=O)c1cc2c3c(c(N)nc2cn1)[C@@H](C)OC3 (racemic) [Example 324, ((3R)-4-amino-3-methyl-1,3-dihydrofuro[3,4-c][1,7]naphthyridin-8-yl)((3R,5S)-3-(3,5-difluorophenyl)-5-methyl-4-morpholinyl)methanone and ((3R)-4-amino-3-methyl-1,3-dihydrofuro[3,4-c][1,7]naphthyridin-8-yl)((3S,5R)-3-(3,5-difluorophenyl)-5-methyl-4-morpholinyl)methanone]	
